Our source for the T/C values is PubChem BioAssay AID328 (DTP/NCI, 2004).

Values joined by “and” are separate entries in the source; they are usually repeats but may differ in a detail not shown here. Identical values can stand only once. Inconclusive results and toxic doses are left out.

The test system of this experiment is BDF1 mice, P388 leukemia ip, median survival T/C. Description: NCI In Vivo Anticancer Drug Screen. Data for tumor model P388 Leukemia (intraperitoneal) in B6D2F1 (BDF1) mice. The conditions noted are these: endpoint: median survival time, higher = longer survival. Summed up:
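Compound-treated tumour-bearing mice were compared with vehicle-treated controls. Survival was recorded, and the value is the treated-group measurement divided by the control-group measurement (T/C).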

Setting [1] is: dose: 50.0 mg/kg/injection, schedule: Q01DX009 (ip), vehicle: saline.
Setting [2] is: dose: 100.0 mg/kg/injection, schedule: Q01DX009 (ip), vehicle: saline.
Where [3] appears, read: dose: 200.0 mg/kg/injection, schedule: Q01DX009 (ip), vehicle: saline.
The mark [4] stands for this setting: dose: 400.0 mg/kg/injection, schedule: Q01DX009 (ip), vehicle: saline.
Where [5] appears, read: dose: 25.0 mg/kg/injection, schedule: Q04DX003 (ip), vehicle: water.
[6] abbreviates: dose: 50.0 mg/kg/injection, schedule: Q04DX003 (ip), vehicle: water.
[7] abbreviates: dose: 100.0 mg/kg/injection, schedule: Q04DX003 (ip), vehicle: water.
The mark [8] stands for this setting: dose: 200.0 mg/kg/injection, schedule: Q04DX003 (ip), vehicle: water.
Where [9] appears, read: dose: 400.0 mg/kg/injection, schedule: Q04DX003 (ip), vehicle: water.
The mark [10] stands for this setting: dose: 12.5 mg/kg/injection, schedule: Q01DX009 (ip), vehicle: saline.
Where [11] appears, read: dose: 25.0 mg/kg/injection, schedule: Q01DX009 (ip), vehicle: saline.
Where [12] appears, read: dose: 6.25 mg/kg/injection, schedule: Q01DX009 (ip), vehicle: saline.
[13] abbreviates: dose: 6.25 mg/kg/injection, schedule: Q04DX003 (ip), vehicle: saline.
Where [14] appears, read: dose: 12.5 mg/kg/injection, schedule: Q04DX003 (ip), vehicle: saline.
Where [15] appears, read: dose: 25.0 mg/kg/injection, schedule: Q04DX003 (ip), vehicle: saline.
[16] abbreviates: dose: 100.0 mg/kg/injection, schedule: Q01DX009 (ip), vehicle: saline with Tween-80.
Where [17] appears, read: dose: 200.0 mg/kg/injection, schedule: Q01DX009 (ip), vehicle: saline with Tween-80.
Where [18] appears, read: dose: 100.0 mg/kg/injection, schedule: Q04DX003 (ip), vehicle: saline with Tween-80.
Where [19] appears, read: dose: 200.0 mg/kg/injection, schedule: Q04DX003 (ip), vehicle: saline with Tween-80.
The mark [20] stands for this setting: dose: 400.0 mg/kg/injection, schedule: Q04DX003 (ip), vehicle: saline with Tween-80.

With `CC(C)c1ccccc1OS(=O)(=O)c1c(F)c(F)c(F)c(F)c1F`, the T/C (dose: 6.25 mg/kg/injection, schedule: Q01DX001 (ip), vehicle: saline with Tween-80) is 104 % of control; the T/C (dose: 12.5 mg/kg/injection, schedule: Q01DX001 (ip), vehicle: saline with Tween-80) was 109 % of control; the T/C (dose: 25.0 mg/kg/injection, schedule: Q01DX001 (ip), vehicle: saline with Tween-80) was 118 % of control.

Consider `O=C(O)CC(NC(=O)CP(=O)(O)O)C(=O)O` (stereo unspecified), for which the T/C runs as follows: under setting [1], 117 % of control; under setting [2], 118 % of control; (dose: 100.0 mg/kg/injection, schedule: Q01DX009 (ip), vehicle: water) 100 % of control; (dose: 180.0 mg/kg/injection, schedule: Q04DX003 (ip), vehicle: saline) 118 % of control; under setting [3], 157 % of control; (dose: 200.0 mg/kg/injection, schedule: Q01DX009 (ip), vehicle: water) 109 % of control. Moreover, the T/C (dose: 300.0 mg/kg/injection, schedule: Q01DX009 (ip), vehicle: saline) was 109 % of control; the T/C (dose: 300.0 mg/kg/injection, schedule: Q01DX009 (ip), vehicle: water) is 106 % of control; the T/C (dose: 300.0 mg/kg/injection, schedule: Q04DX003 (ip), vehicle: saline) is 109 % of control; the T/C under setting [4] was 96 % of control; the T/C (dose: 500.0 mg/kg/injection, schedule: Q04DX003 (ip), vehicle: saline) was 122 % of control; the T/C (dose: 600.0 mg/kg/injection, schedule: Q04DX003 (ip), vehicle: saline) was 118 % of control. The T/C is 163 % of control (dose: 750.0 mg/kg/injection, schedule: Q04DX003 (ip), vehicle: saline); 100 % of control (dose: 833.0 mg/kg/injection, schedule: Q04DX003 (ip), vehicle: saline); 85 % of control (dose: 1000.0 mg/kg/injection, schedule: Q04DX003 (ip), vehicle: saline); 64 % of control (dose: 1500.0 mg/kg/injection, schedule: Q04DX003 (ip), vehicle: saline).

As for `COc1cccc(/C=C/C(=O)O)c1OC`, the T/C is 106 % of control under setting [5]; 103 % of control under setting [6]; 112 % of control under setting [7]; 106 % of control under setting [8]; 97 % of control under setting [9].

For `NC(N)=Nc1ccc(S(=O)(=O)O)cc1`, the T/C runs as follows: under setting [10], 108 % of control; under setting [11], 108 % of control; under setting [1], 91 % of control; under setting [2], 106 % of control.

Take `Nc1ccc(Nc2ccccc2)c(S(=O)(=O)O)c1`: the T/C is, setting by setting: under setting [1], 116 % of control; under setting [2], 100 % of control; under setting [3], 108 % of control; under setting [4], 104 % of control and 116 % of control.

On to `O=c1cn[nH]c(=O)[nH]1`, for which the T/C runs as follows: (dose: 62.5 mg/kg/injection, schedule: Q01DX010 (ip), vehicle: saline) 100 % of control; (dose: 125.0 mg/kg/injection, schedule: Q01DX010 (ip), vehicle: saline) 100 % of control; (dose: 250.0 mg/kg/injection, schedule: Q01DX010 (ip), vehicle: saline) 100 % of control; (dose: 500.0 mg/kg/injection, schedule: Q01DX010 (ip), vehicle: saline) 95 % of control.

For `O=C(CBr)Nc1nccs1`, the T/C by setting is: (dose: 1.56 mg/kg/injection, schedule: Q01DX009 (ip), vehicle: saline) 100 % of control; (dose: 3.12 mg/kg/injection, schedule: Q04DX003 (ip), vehicle: saline) 95 % of control; under setting [12], 97 % of control; under setting [13], 94 % of control and 102 % of control; under setting [10], 90 % of control; under setting [14], 91 % of control and 97 % of control. Further, the T/C under setting [11] is 97 % of control; the T/C under setting [15] was 91 % of control and 97 % of control and 100 % of control; the T/C under setting [1] was 104 % of control.

Consider `CN(C)P(N)(N)=O`, for which the T/C reads like this: (dose: 100.0 mg/kg/injection, schedule: Q04DX003 (ip), vehicle: Klucel (hydroxypropylcellulose) (HPC)) 100 % of control; (dose: 200.0 mg/kg/injection, schedule: Q04DX003 (ip), vehicle: Klucel (hydroxypropylcellulose) (HPC)) 100 % of control; (dose: 400.0 mg/kg/injection, schedule: Q04DX003 (ip), vehicle: Klucel (hydroxypropylcellulose) (HPC)) 95 % of control.

Consider `Cn1c(-c2ccccc2)c(C(=O)O)c(C(=O)O)c1-c1ccccc1`, for which the T/C (dose: 50.0 mg/kg/injection, schedule: Q01DX009 (ip), vehicle: Klucel (hydroxypropylcellulose) (HPC)) was 95 % of control; the T/C (dose: 100.0 mg/kg/injection, schedule: Q01DX009 (ip), vehicle: Klucel (hydroxypropylcellulose) (HPC)) was 90 % of control; the T/C (dose: 200.0 mg/kg/injection, schedule: Q01DX009 (ip), vehicle: Klucel (hydroxypropylcellulose) (HPC)) was 96 % of control.

In the case of `COc1ccc(C(CC(C)=O)c2c(O)c3ccccc3oc2=O)cc1OC` (stereo unspecified), the T/C by setting is: (dose: 3.12 mg/kg/injection, schedule: Q04DX003 (ip), vehicle: water) 98 % of control; (dose: 6.25 mg/kg/injection, schedule: Q01DX009 (ip), vehicle: water) 100 % of control; (dose: 6.25 mg/kg/injection, schedule: Q04DX003 (ip), vehicle: water) 101 % of control; (dose: 12.5 mg/kg/injection, schedule: Q01DX009 (ip), vehicle: water) 100 % of control; (dose: 12.5 mg/kg/injection, schedule: Q04DX003 (ip), vehicle: water) 100 % of control; under setting [5], 105 % of control. Further, the T/C is 100 % of control under setting [6]; 100 % of control and 102 % of control under setting [7]; 101 % of control under setting [8]; 90 % of control under setting [9].

In the case of `CC(=O)O.[Cd]`, the T/C (dose: 5.0 mg/kg/injection, schedule: Q04DX003 (ip), vehicle: saline) is 95 % of control.

As for `C/C(Cc1ccccc1)=N\O`, the T/C under setting [16] is 100 % of control and the T/C under setting [17] is 110 % of control.

For the molecule `CCCOP(=O)(OCCC)C(OC(=O)C(C)C)=C(C)C`, the T/C by setting is: under setting [18], 120 % of control; under setting [19], 105 % of control.

In the case of `Cn1c(O)c(N=NC(N)=S)c2ccccc21`, the T/C is, setting by setting: (dose: 10.0 mg/kg/injection, schedule: Q01DX009 (ip), vehicle: saline with Tween-80) 102 % of control; (dose: 20.0 mg/kg/injection, schedule: Q01DX009 (ip), vehicle: saline with Tween-80) 98 % of control; (dose: 40.0 mg/kg/injection, schedule: Q01DX009 (ip), vehicle: saline with Tween-80) 115 % of control; (dose: 50.0 mg/kg/injection, schedule: Q01DX009 (ip), vehicle: saline with Tween-80) 90 % of control; (dose: 80.0 mg/kg/injection, schedule: Q01DX009 (ip), vehicle: saline with Tween-80) 120 % of control; under setting [16], 90 % of control. The T/C is 113 % of control (dose: 160.0 mg/kg/injection, schedule: Q01DX009 (ip), vehicle: saline with Tween-80) and 90 % of control under setting [17].

Take `N#CN1CC(C(=O)N2CCCCC2)C=C2c3cccc4[nH]cc(c34)CC21` (stereo unspecified): the T/C was 106 % of control under setting [12]; 114 % of control under setting [13]; 94 % of control under setting [10]; 113 % of control under setting [14]; 106 % of control under setting [15]; 88 % of control under setting [1]. For the same molecule, the T/C was 106 % of control (dose: 50.0 mg/kg/injection, schedule: Q04DX003 (ip), vehicle: saline) and 94 % of control (dose: 100.0 mg/kg/injection, schedule: Q04DX003 (ip), vehicle: saline).

In the case of `CC(C)c1nc(-c2ccccc2)c(-c2ccccc2)[nH]1`, the T/C was 100 % of control under setting [18], 104 % of control under setting [19] and 100 % of control under setting [20].

Take `Cc1nc[nH]c(=O)c1N`: the T/C under setting [1] is 102 % of control, the T/C under setting [2] is 102 % of control and the T/C under setting [3] is 102 % of control.

`Cn1nc(NC(=O)C(F)(F)F)c2nccnc21`: the T/C reads like this: under setting [18], 100 % of control; under setting [19], 100 % of control; under setting [20], 100 % of control.
